O=C1/C(=C/c2ccc(O)cc2)CCC/C1=C\c1ccc(O)cc1
solubility (mole fraction)
Conditions	in 1,4-dioxane	in DMF	in DMSO	in THF	in acetic acid	in acetone	in ethyl acetate	in methanol	in n-butanol	in n-propanol
299.15 K	0.0074	0.0332	0.0112	0.023	0.0032	0.0049	0.0021	0.0034	0.0134	0.0013
303.15 K	0.0085	0.0388	0.0132	0.0256	0.0034	0.0061	0.0031	0.0041	0.0142	0.0023
308.15 K	0.0101	0.0458	0.0156	0.0281	0.0036	0.0073	0.004	0.0051	0.0152	0.0036
313.15 K	0.0115	0.0556	0.0251	0.0319	0.0039	0.0093	0.0053	0.0066	0.0164	0.0056
318.15 K	0.0135	0.0658	0.0371	0.0387	0.0044	0.0114	0.0069	0.0086	0.0178	0.0086
323.15 K	0.0153	0.0816	0.0528	0.0461	0.0052	0.0128	0.0102	0.0102	0.021	0.0123
328.15 K	0.0172	0.106	0.0742	0.0527	0.0063	0.0147	0.0136	0.0129	0.0235	0.0169

Reference: BigSolDB 2.1
